These results are taken from US10517889B2, “Modulators of SMAD7 expression” (Ionis Pharmaceuticals, Inc., priority 2017, dated 2019).

The test system of this data set is human SMAD7 mRNA. The data set is described as follows: Antisense inhibition of human SMAD7 mRNA expression in Hep3B cells by 3-10-3 cEt gapmers, 10,000 nM, electroporation (Example 2). The note with it: approximately 24 hours. Format: cell-based. In a few lines: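 Percent inhibition of SMAD7 mRNA, relative to untreated cells, after ~24 h exposure of electroporated Hep3B cells to 10,000 nM cEt gapmer; levels by qRT-PCR, corrected for total RNA.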

The mark [1] stands for this setting: SMAD7 mRNA, Hep3B cells, electroporation with 10,000 nM antisense oligonucleotide, primer probe set RTS5062, relative to untreated control cells.
Where [2] appears, read: Hep3B cells, electroporation, 10,000 nM antisense oligonucleotide, RTS5062, relative to untreated control cells.
[3] abbreviates: Hep3B cells, electroporation with 10,000 nM antisense oligonucleotide, SMAD7 mRNA by RT-PCR (RTS5062), relative to untreated control cells.
Where [4] appears, read: Hep3B cells, electroporation with 10,000 nM antisense oligonucleotide, RTS5062, percent inhibition of SMAD7 mRNA relative to untreated control cells.
[5] abbreviates: Hep3B cells, electroporation with 10,000 nM antisense oligonucleotide, primer probe set RTS5062, relative to untreated control cells.
[6] abbreviates: SMAD7 mRNA, Hep3B cells, 10,000 nM antisense oligonucleotide, electroporation, primer probe set RTS5062, relative to untreated control cells.
Setting [7] is: Hep3B cells, 10,000 nM antisense oligonucleotide, electroporation, RT-PCR primer probe set RTS5062, relative to untreated control cells.

Strand notation (5' to 3'): a small letter for the sugar, then the base; units joined by * are phosphorothioate-linked, units joined directly phosphodiester-linked; [ ] holds rarer units or linkages, { } end groups; capitals alone tell only the bases. k = constrained ethyl (cEt); [5mC] = 5-methylcytosine; d = 2'-deoxy (DNA)

Turning to “829963 (k[5mC]*k[5mC]*kT*dA*dG*dT*dT*d[5mC]*dG*d[5mC]*dA*dG*dA*kG*kT*k[5mC]; antisense) [compound 829963]”, under setting [1], the “% Inhibition” value amounted to 46%.

Turning to “829988 (kG*k[5mC]*k[5mC]*dG*d[5mC]*dG*dA*dG*dG*d[5mC]*dG*dG*dT*kG*kA*kT; antisense) [compound 829988]”, under setting [1], the “% Inhibition” value was found to be 27%.

Regarding “799731 (antisense k[5mC]*kT*kT*dT*d[5mC]*dT*dT*dG*dG*dT*dG*dT*dG*kT*kT*kA) [compound 799731]”, the “% inhibition of SMAD7 mRNA expression” value under setting [2] is recorded as 37%.

Take “829960 (kA*kT*kT*dA*dT*dT*dA*dA*dT*dG*dG*dT*d[5mC]*kT*kG*k[5mC]; antisense) [compound 829960]”: the “% Inhibition” value under setting [1] is 17%.

For the substance “829850 (antisense kT*kT*kG*dT*dT*dG*dT*d[5mC]*d[5mC]*dG*dA*dA*dT*kT*kG*kA) [compound 829850]”, under setting [1], the “% Inhibition” value was 36%.

For “830092 (kA*kT*kT*dA*dG*dT*d[5mC]*d[5mC]*d[5mC]*dA*dT*dG*dA*kA*kA*k[5mC]; antisense) [compound 830092]”, under setting [3], the “% Inhibition” value is 43%.

For the substance “799658 (antisense kA*kA*k[5mC]*dT*dA*d[5mC]*dA*dA*dG*dT*dG*dG*dT*kT*kG*k[5mC]) [compound 799658]”, the “% inhibition of SMAD7 mRNA expression” value under setting [2] stood at 22%.

Regarding “830175 (antisense kT*k[5mC]*kT*d[5mC]*dA*dA*d[5mC]*dA*dG*dA*d[5mC]*d[5mC]*dA*k[5mC]*kA*k[5mC]) [compound 830175]”, the “% Inhibition” value under setting [3] came to 44%.

Consider “829903 (antisense k[5mC]*kT*kG*dT*dT*dG*dA*dA*dG*dA*dT*dG*dA*k[5mC]*k[5mC]*kT) [compound 829903]”, for which, under setting [1], the “% Inhibition” value came to 25%.

Take “799582 (kA*k[5mC]*kA*dA*dA*d[5mC]*d[5mC]*dT*dT*d[5mC]*d[5mC]*dG*dA*kA*kA*kG; antisense) [compound 799582]”: the “% inhibition of SMAD7 mRNA expression” value under setting [2] came to 19%.

Turning to “799279 (antisense kA*k[5mC]*k[5mC]*dT*dT*dG*dT*d[5mC]*dA*d[5mC]*d[5mC]*d[5mC]*dG*kT*k[5mC]*kT) [compound 799279]”, the “% Inhibition” value under setting [4] worked out at 48%.

Consider “799186 (antisense k[5mC]*kT*kT*dG*dT*dT*d[5mC]*dA*dT*dT*dT*dA*dA*kA*k[5mC]*k[5mC]) [compound 799186]”, for which the “% inhibition of SMAD7 mRNA expression” value under setting [5] amounted to 31%.

Turning to “790519 (k[5mC]*kT*kG*dG*dA*dG*dT*d[5mC]*d[5mC]*dG*dG*dG*dT*kT*kG*kT; antisense) [compound 790519]”, the “% Inhibition” value under setting [6] is given as 8%.

“772801 (kG*kA*k[5mC]*dA*dA*dA*d[5mC]*d[5mC]*dT*dT*d[5mC]*d[5mC]*dG*kA*kA*kA; antisense) [compound 772801]”: under setting [2], the “% inhibition of SMAD7 mRNA expression” value turned out to be 34%.

“772567 (antisense kG*kA*k[5mC]*dT*dT*d[5mC]*d[5mC]*dG*dA*dG*dG*dA*dA*kT*kG*k[5mC]) [compound 772567]”: the “% Inhibition” value under setting [6] stood at 58%.

As to “799106 (antisense kT*kT*kT*dT*d[5mC]*dT*dA*dA*dG*dT*d[5mC]*d[5mC]*dG*kG*kG*kA) [compound 799106]”, under setting [5], the “% inhibition of SMAD7 mRNA expression” value is reported as 34%.

On to “799647 (antisense kA*k[5mC]*kA*dG*dA*dA*dA*d[5mC]*dT*d[5mC]*d[5mC]*dA*dG*kA*kT*kG) [compound 799647]”, for which, under setting [4], the “% Inhibition” value is listed as 0%.

On to “830001 (kG*k[5mC]*k[5mC]*d[5mC]*dA*dA*d[5mC]*dT*dG*dT*dT*dT*dG*kT*k[5mC]*kT; antisense) [compound 830001]”, for which the “% Inhibition” value under setting [1] is given as 24%.

For the substance “798985 (antisense kG*kA*k[5mC]*d[5mC]*dG*d[5mC]*d[5mC]*d[5mC]*d[5mC]*d[5mC]*d[5mC]*dT*dT*k[5mC]*kA*kT) [compound 798985]”, the “% inhibition of SMAD7 mRNA expression” value under setting [5] was 41%.

For “799991 (kG*kG*k[5mC]*d[5mC]*dG*d[5mC]*d[5mC]*dT*d[5mC]*d[5mC]*dT*dG*d[5mC]*kA*kG*kG; antisense) [compound 799991]”, the “% Inhibition” value under setting [7] was found to be 19%.

On to “799775 (kA*k[5mC]*kA*d[5mC]*dA*dA*dG*dA*dG*dG*dG*dA*dA*kG*k[5mC]*k[5mC]; antisense) [compound 799775]”, for which the “% inhibition of SMAD7 mRNA expression” value under setting [2] is 22%.

Consider “799746 (antisense kA*kA*kT*dG*dG*dG*dA*dA*dA*dT*dA*dA*dG*kG*k[5mC]*kG) [compound 799746]”, for which the “% Inhibition” value under setting [4] is on record as 59%.

Regarding “798998 (antisense k[5mC]*kG*k[5mC]*dA*d[5mC]*dA*d[5mC]*dT*d[5mC]*dA*d[5mC]*dA*d[5mC]*kT*k[5mC]*kA) [compound 798998]”, the “% Inhibition” value under setting [5] is 13%.

In the case of “772533 (antisense kT*kG*kA*dA*dG*dA*dA*dG*dT*d[5mC]*dG*dG*dG*k[5mC]*kG*k[5mC]) [compound 772533]”, under setting [5], the “% inhibition of SMAD7 mRNA expression” value came to 31%.

With “799774 (kG*k[5mC]*k[5mC]*d[5mC]*dT*dG*dT*dT*d[5mC]*dT*dG*d[5mC]*dG*k[5mC]*kT*kA; antisense) [compound 799774]”, the “% inhibition of SMAD7 mRNA expression” value under setting [2] turned out to be 0%.

Regarding “830124 (antisense k[5mC]*k[5mC]*kG*dA*dG*dG*d[5mC]*dA*d[5mC]*d[5mC]*dA*d[5mC]*dA*kT*kT*kT) [compound 830124]”, the “% Inhibition” value under setting [3] is 27%.

For the substance “829722 (antisense kA*kT*kG*d[5mC]*dG*d[5mC]*d[5mC]*dA*dG*dT*d[5mC]*dT*d[5mC]*k[5mC]*k[5mC]*kG) [compound 829722]”, under setting [6], the “% Inhibition” value is listed as 38%.

As to “799889 (antisense kA*kA*kA*dA*dG*dG*dA*d[5mC]*dA*dA*dA*dA*d[5mC]*k[5mC]*k[5mC]*k[5mC]) [compound 799889]”, the “% Inhibition” value under setting [3] is recorded as 45%.

As for “772633 (kG*kG*kT*d[5mC]*dA*dT*dT*dG*dG*dG*d[5mC]*d[5mC]*dG*k[5mC]*kT*kG; antisense) [compound 772633]”, under setting [7], the “% Inhibition” value turned out to be 37%.

Regarding “798853 (k[5mC]*k[5mC]*kA*d[5mC]*dA*d[5mC]*dA*d[5mC]*d[5mC]*dA*dT*d[5mC]*d[5mC]*kA*k[5mC]*k[5mC]; antisense) [compound 798853]”, the “% Inhibition” value under setting [7] worked out at 7%.

As to “829839 (kA*k[5mC]*kA*d[5mC]*dA*dG*dT*dA*dG*dA*dG*d[5mC]*d[5mC]*kT*k[5mC]*k[5mC]; antisense) [compound 829839]”, the “% Inhibition” value under setting [1] turned out to be 8%.

With “799450 (antisense kA*kA*kG*dA*dA*d[5mC]*dA*d[5mC]*dA*dG*d[5mC]*dA*d[5mC]*kT*kG*k[5mC]) [compound 799450]”, under setting [3], the “% Inhibition” value amounted to 53%.

In the case of “798675 (antisense k[5mC]*kA*kG*dG*d[5mC]*dG*d[5mC]*dA*dG*dG*d[5mC]*dG*dA*k[5mC]*kA*kG) [compound 798675]”, the “% inhibition of SMAD7 mRNA expression” value under setting [5] was found to be 51%.

For “830162 (antisense kA*k[5mC]*kA*dA*dG*dG*dT*dG*dA*dA*dA*dG*dT*kT*kA*kT) [compound 830162]”, the “% Inhibition” value under setting [3] came to 20%.

As to “790469 (k[5mC]*kG*kG*dA*d[5mC]*dG*dA*dG*d[5mC]*dG*d[5mC]*dA*dG*kA*kT*k[5mC]; antisense) [compound 790469]”, the “% Inhibition” value under setting [6] is reported as 41%.

Take “799407 (antisense kT*kG*k[5mC]*dA*dG*dG*dA*dA*dA*d[5mC]*d[5mC]*d[5mC]*dA*kA*kG*kG) [compound 799407]”: the “% Inhibition” value under setting [3] is 33%.

With “790634 (kA*kG*kT*d[5mC]*dA*dG*dT*dT*dG*dG*dT*dT*dT*kG*kA*kG; antisense) [compound 790634]”, the “% inhibition of SMAD7 mRNA expression” value (Hep3B cells, electroporation, 10,000 nM, 3-10-3 cEt gapmers targeting SEQ ID NO: 3 and 4) stood at 0%.

For “830046 (kT*k[5mC]*k[5mC]*dG*dA*dT*dT*dG*dG*d[5mC]*dA*dG*dG*kT*kT*kA; antisense) [compound 830046]”, under setting [3], the “% Inhibition” value was 60%.

In the case of “799244 (kG*kG*kG*d[5mC]*d[5mC]*dA*d[5mC]*dT*dG*dG*dT*dG*dT*kT*k[5mC]*kG; antisense) [compound 799244]”, under setting [5], the “% inhibition of SMAD7 mRNA expression” value is 8%.

Take “829809 (kG*kG*kG*dA*dG*dA*d[5mC]*dT*d[5mC]*dT*dA*dG*dT*kT*k[5mC]*kG; antisense) [compound 829809]”: under setting [1], the “% Inhibition” value came to 51%.

For “799507 (antisense kA*k[5mC]*kT*d[5mC]*dA*dT*dT*dA*dG*dT*d[5mC]*d[5mC]*d[5mC]*kA*kT*kG) [compound 799507]”, under setting [3], the “% Inhibition” value came out at 34%.

In the case of “799998 (k[5mC]*kA*kG*dT*dA*dA*dA*dG*dA*d[5mC]*dA*dT*dG*kA*kG*k[5mC]; antisense) [compound 799998]”, the “% Inhibition” value under setting [7] came to 45%.

“799828 (antisense kT*kG*k[5mC]*dG*dA*dG*d[5mC]*d[5mC]*dA*dA*dG*dA*dG*kA*k[5mC]*kA) [compound 799828]”: the “% Inhibition” value under setting [4] turned out to be 54%.

For “799772 (k[5mC]*kG*k[5mC]*d[5mC]*dG*d[5mC]*dG*dG*d[5mC]*dA*dT*dA*dT*kG*k[5mC]*k[5mC]; antisense) [compound 799772]”, the “% inhibition of SMAD7 mRNA expression” value under setting [2] is 30%.

As to “800082 (antisense kG*k[5mC]*kA*dG*dA*d[5mC]*d[5mC]*dG*dG*dT*dA*dT*dT*kA*kA*k[5mC]) [compound 800082]”, the “% Inhibition” value under setting [3] came to 12%.

For the substance “829937 (kT*kT*k[5mC]*dA*dG*d[5mC]*dT*dA*dG*dG*dT*dG*dA*kT*kA*kA; antisense) [compound 829937]”, the “% Inhibition” value under setting [1] was found to be 0%.

The % Inhibition is how much of the control response was suppressed.
